In brackets after ≈: the same amount, converted by molar mass. Like-named read-outs stand apart in the source and are kept apart here. Where a SMILES comes first, the peptide text is derived from it. [ ]: non-standard residue; d: D form.
How the values were obtained:
MDRAB 12035 [1] = test: MIC of antimicrobial peptide during combined treatment with antibiotic; assay type: cell-based, Acinetobacter baumannii
Outline: (§1)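 Antibiotic MIC came from antibiotic dilutions added to bacteria (2×10^6 CFU/ml, MH medium) already combined with peptide serially diluted 2:1 from its own MIC. Swapping the roles of the two agents gave the peptide MIC.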

A. baumannii [2] = test: as above; assay type: cell-based, Acinetobacter baumannii
Outline: as §1

MDREC 1229 = assay type: cell-based, Escherichia coli
Outline: as §1

E. coli = assay type: cell-based, Escherichia coli; details: E. coli
Outline: as §1

S. typhimurium = test: microbe, parasite or virus in culture; assay type: cell-based, Salmonella typhimurium
Outline: (§2)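 Peptides were serially diluted twofold in Mueller-Hinton medium and combined 1:1 with bacterial suspensions prepared at 2×10^6 CFU. Readout was the minimal inhibitory concentration, i.e. the lowest concentration with no growth.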

MDRST 8009 = assay type: cell-based, Salmonella typhimurium; details: agent alone
Outline: as §2

MDRAB 12036 = assay type: cell-based, Acinetobacter baumannii
Outline: as §2

MDRAB 12035 [3] = test: microbe, parasite or virus in culture; assay type: cell-based, Acinetobacter baumannii
Outline: as §2

A. baumannii [4] = test: microbe, parasite or virus in culture; assay type: cell-based, Acinetobacter baumannii
Outline: as §2

[5] = erythromycin 4 μg/ml (Conc./MIC 1/8)
[6] = erythromycin 8 μg/ml (Conc./MIC 1/4)
[7] = erythromycin 16 μg/ml (Conc./MIC 1/2)
[8] = erythromycin 32 μg/ml (Conc./MIC 1)
[9] = linezolid 64 μg/ml (Conc./MIC 1/8)
[10] = linezolid 512 μg/ml (Conc./MIC 1)
[11] = vancomycin 512 μg/ml (Conc./MIC 1/2)
[12] = vancomycin 1024 μg/ml (Conc./MIC 1)
[13] = linezolid 32 μg/ml (Conc./MIC 1/8)
[14] = linezolid 64 μg/ml (Conc./MIC 1/4)
[15] = erythromycin 32 μg/ml (Conc./MIC 1/8)
[16] = erythromycin 64 μg/ml (Conc./MIC 1/4)
[17] = erythromycin […] (Conc./MIC 1/2)
[18] = with Erythromycin […] (Conc./MIC 1)
[19] = with Linezolid […] (Conc./MIC 1)
[20] = with Vancomycin 1024 μg/ml (Conc./MIC 1)

For `CC[C@H](C)[C@H](NC(=O)[C@H](CCCCN)NC(=O)[C@H](Cc1c[nH]c2ccccc12)NC(=O)[C@@H](N)CCCNC(=N)N)C(=O)N[C@@H](Cc1ccccc1)C(=O)N[C@@H](CCCCN)C(=O)N[C@@H](CCCCN)C(=O)N[C@H](C(=O)N1CCC[C@H]1C(=O)N[C@@H](CCCCN)C(=O)N[C@@H](Cc1ccccc1)C(=O)N[C@@H](CC(C)C)C(=O)N[C@@H](Cc1c[nH]cn1)C(=O)N[C@@H](CCC(=O)O)C(=O)N[C@@H](C)C(=O)N[C@@H](CCCCN)C(=O)N[C@@H](CCCCN)C(=O)N[C@@H](Cc1ccccc1)C(N)=O)[C@@H](C)CC` [PapMA-11, RWK IFK KIP KFL HEA KKF-NH2] (H-RWKIFKKIPKFLHEAKKF-NH2; N-terminus assumed), the “Peptide MIC during treatment with erythromycin” value (MDRAB 12035 [1]; [5]) was 4 µg/mL, the “Peptide MIC during treatment with erythromycin” value (MDRAB 12035 [1]; [6]) was 4 µg/mL and the “Peptide MIC during treatment with erythromycin” value (MDRAB 12035 [1]; [7]) was 2 µg/mL. The “Peptide MIC during treatment with erythromycin” value (MDRAB 12035 [1]; [8]) was 0 µg/mL, the “Peptide MIC during treatment with linezolid” value (MDRAB 12035 [1]; [9]) was 4 µg/mL and the “Peptide MIC during treatment with linezolid” value (MDRAB 12035 [1]; [10]) was 0 µg/mL. The “Peptide MIC during treatment with linezolid” value (MDRAB 12035 [1]; linezolid […] (Conc./MIC 1/2)) was 2 µg/mL, the “Peptide MIC during treatment with linezolid” value (MDRAB 12035 [1]; linezolid […] (Conc./MIC 1/4)) was 2 µg/mL and the “Peptide MIC during treatment with vancomycin” value (MDRAB 12035 [1]; [11]) was 1 µg/mL. For the same compound, the “Peptide MIC during treatment with vancomycin” value (MDRAB 12035 [1]; [12]) was 1 µg/mL, the “Peptide MIC during treatment with vancomycin” value (MDRAB 12035 [1]; vancomycin […] (Conc./MIC 1/4)) was 2 µg/mL and the “Peptide MIC during treatment with vancomycin” value (MDRAB 12035 [1]; vancomycin […] (Conc./MIC 1/8)) was 2 µg/mL. The “Peptide MIC during treatment with antibiotic” value (A. baumannii [2]; [5]) was 4 µg/mL, the “Peptide MIC during treatment with antibiotic” value (A. baumannii [2]; [6]) was 4 µg/mL and the “Peptide MIC during treatment with antibiotic” value (A. baumannii [2]; [7]) was 2 µg/mL. For the same compound, the “Peptide MIC during treatment with antibiotic” value (A. baumannii [2]; [8]) was 0 µg/mL, the “Peptide MIC during treatment with antibiotic” value (A. baumannii [2]; [13]) was 8 µg/mL and the “Peptide MIC during treatment with antibiotic” value (A. baumannii [2]; [14]) was 4 µg/mL. The “Peptide MIC during treatment with antibiotic” value (A. baumannii [2]; linezolid […] (Conc./MIC 1)) was 0 µg/mL, the “Peptide MIC during treatment with antibiotic” value (A. baumannii [2]; linezolid […] (Conc./MIC 1/2)) was 2 µg/mL and the “Peptide MIC during treatment with antibiotic” value (A. baumannii [2]; [11]) was 0.25 µg/mL. For the same compound, the “Peptide MIC during treatment with antibiotic” value (A. baumannii [2]; [12]) was 0 µg/mL, the “Peptide MIC during treatment with antibiotic” value (A. baumannii [2]; vancomycin […] (Conc./MIC 1/4)) was 0.5 µg/mL and the “Peptide MIC during treatment with antibiotic” value (A. baumannii [2]; vancomycin […] (Conc./MIC 1/8)) was 2 µg/mL. The “Peptide MIC during treatment with antibiotic” value (MDREC 1229; [15]) was 4 µg/mL, the “Peptide MIC during treatment with antibiotic” value (MDREC 1229; [16]) was 2 µg/mL and the “Peptide MIC during treatment with antibiotic” value (MDREC 1229; erythromycin […] (Conc./MIC 1)) was 0 µg/mL. For the same compound, the “Peptide MIC during treatment with antibiotic” value (MDREC 1229; [17]) was 1 µg/mL, the “Peptide MIC during treatment with antibiotic” value (MDREC 1229; [9]) was 8 µg/mL and the “Peptide MIC during treatment with antibiotic” value (MDREC 1229; [10]) was 0 µg/mL. For the same compound, the “Peptide MIC during treatment with antibiotic” value (MDREC 1229; linezolid […] (Conc./MIC 1/2)) was 2 µg/mL, the “Peptide MIC during treatment with antibiotic” value (MDREC 1229; linezolid […] (Conc./MIC 1/4)) was 4 µg/mL and the “Peptide MIC during treatment with antibiotic” value (MDREC 1229; [11]) was 2 µg/mL. For the same compound, the “Peptide MIC during treatment with antibiotic” value (MDREC 1229; [12]) was 1 µg/mL, the “Peptide MIC during treatment with antibiotic” value (MDREC 1229; vancomycin […] (Conc./MIC 1/4)) was 4 µg/mL and the “Peptide MIC during treatment with antibiotic” value (MDREC 1229; vancomycin […] (Conc./MIC 1/8)) was 8 µg/mL. For the same compound, the “Peptide MIC” value (E. coli; [18]) was 0 µg/mL, the “Peptide MIC” value (E. coli; [19]) was 0 µg/mL and the “Peptide MIC” value (E. coli; [20]) was 0 µg/mL. For the same compound, the “Minimal inhibitory concentration MIC” value (S. typhimurium) was 64 µg/mL (≈ 27.3 µM), the “Minimal inhibitory concentration MIC” value (MDRST 8009) was 64 µg/mL (≈ 27.3 µM) and the “Minimal inhibitory concentration MIC” value (MDRAB 12036) was 64 µg/mL (≈ 27.3 µM). For the same compound, the “Minimal inhibitory concentration MIC” value (MDRAB 12035 [3]) was 64 µg/mL (≈ 27.3 µM), the “Peptide MIC, peptide alone” value (MDRAB 12035 [3]) was 64 µg/mL and the “Minimal inhibitory concentration MIC” value (A. baumannii [4]) was 64 µg/mL (≈ 27.3 µM). For the same compound, the “Peptide MIC, peptide alone” value (A. baumannii [4]) was 64 µg/mL.

`CC[C@H](C)[C@H](NC(=O)[C@H](CCCCN)NC(=O)[C@H](Cc1c[nH]c2ccccc12)NC(=O)[C@@H](N)CCCNC(=N)N)C(=O)N[C@@H](Cc1ccccc1)C(=O)N[C@@H](CCCCN)C(=O)N[C@@H](CCCCN)C(=O)N[C@H](C(=O)N[C@H](CCCCN)C(=O)N[C@@H](CCCCN)C(=O)N[C@@H](CC(C)C)C(=O)N[C@@H](CC(C)C)C(=O)N[C@@H](Cc1c[nH]cn1)C(=O)N[C@@H](CO)C(=O)N[C@@H](C)C(=O)N[C@@H](CCCCN)C(=O)N[C@@H](CCCCN)C(=O)N[C@@H](Cc1c[nH]c2ccccc12)C(N)=O)[C@@H](C)CC` [PapMA-16, RWK IFK KIk KLL HSA KKW-NH2] (H-RWKIFKKI[dK]KLLHSAKKW-NH2; N-terminus assumed) was tested, and the “Peptide MIC during treatment with erythromycin” value (MDRAB 12035 [1]; [5]) was 4 µg/mL, the “Peptide MIC during treatment with erythromycin” value (MDRAB 12035 [1]; [6]) was 4 µg/mL and the “Peptide MIC during treatment with erythromycin” value (MDRAB 12035 [1]; [7]) was 4 µg/mL. For the same compound, the “Peptide MIC during treatment with erythromycin” value (MDRAB 12035 [1]; [8]) was 0 µg/mL, the “Peptide MIC during treatment with linezolid” value (MDRAB 12035 [1]; [9]) was 4 µg/mL and the “Peptide MIC during treatment with linezolid” value (MDRAB 12035 [1]; [10]) was 0 µg/mL. For the same compound, the “Peptide MIC during treatment with linezolid” value (MDRAB 12035 [1]; linezolid […] (Conc./MIC 1/2)) was 1 µg/mL, the “Peptide MIC during treatment with linezolid” value (MDRAB 12035 [1]; linezolid […] (Conc./MIC 1/4)) was 4 µg/mL and the “Peptide MIC during treatment with vancomycin” value (MDRAB 12035 [1]; [11]) was 2 µg/mL. The “Peptide MIC during treatment with vancomycin” value (MDRAB 12035 [1]; [12]) was 1 µg/mL, the “Peptide MIC during treatment with vancomycin” value (MDRAB 12035 [1]; vancomycin […] (Conc./MIC 1/4)) was 4 µg/mL and the “Peptide MIC during treatment with vancomycin” value (MDRAB 12035 [1]; vancomycin […] (Conc./MIC 1/8)) was 8 µg/mL. For the same compound, the “Peptide MIC during treatment with antibiotic” value (A. baumannii [2]; [5]) was 4 µg/mL, the “Peptide MIC during treatment with antibiotic” value (A. baumannii [2]; [6]) was 4 µg/mL and the “Peptide MIC during treatment with antibiotic” value (A. baumannii [2]; [7]) was 2 µg/mL. The “Peptide MIC during treatment with antibiotic” value (A. baumannii [2]; [8]) was 0 µg/mL, the “Peptide MIC during treatment with antibiotic” value (A. baumannii [2]; [13]) was 8 µg/mL and the “Peptide MIC during treatment with antibiotic” value (A. baumannii [2]; [14]) was 8 µg/mL. The “Peptide MIC during treatment with antibiotic” value (A. baumannii [2]; linezolid […] (Conc./MIC 1)) was 0 µg/mL, the “Peptide MIC during treatment with antibiotic” value (A. baumannii [2]; linezolid […] (Conc./MIC 1/2)) was 4 µg/mL and the “Peptide MIC during treatment with antibiotic” value (A. baumannii [2]; [11]) was 0.25 µg/mL. For the same compound, the “Peptide MIC during treatment with antibiotic” value (A. baumannii [2]; [12]) was 0 µg/mL, the “Peptide MIC during treatment with antibiotic” value (A. baumannii [2]; vancomycin […] (Conc./MIC 1/4)) was 0.5 µg/mL and the “Peptide MIC during treatment with antibiotic” value (A. baumannii [2]; vancomycin […] (Conc./MIC 1/8)) was 2 µg/mL. The “Peptide MIC during treatment with antibiotic” value (MDREC 1229; [15]) was 4 µg/mL, the “Peptide MIC during treatment with antibiotic” value (MDREC 1229; [16]) was 2 µg/mL and the “Peptide MIC during treatment with antibiotic” value (MDREC 1229; erythromycin […] (Conc./MIC 1)) was 0 µg/mL. For the same compound, the “Peptide MIC during treatment with antibiotic” value (MDREC 1229; [17]) was 2 µg/mL, the “Peptide MIC during treatment with antibiotic” value (MDREC 1229; [9]) was 4 µg/mL and the “Peptide MIC during treatment with antibiotic” value (MDREC 1229; [10]) was 0 µg/mL. The “Peptide MIC during treatment with antibiotic” value (MDREC 1229; linezolid […] (Conc./MIC 1/2)) was 1 µg/mL, the “Peptide MIC during treatment with antibiotic” value (MDREC 1229; linezolid […] (Conc./MIC 1/4)) was 2 µg/mL and the “Peptide MIC during treatment with antibiotic” value (MDREC 1229; [11]) was 2 µg/mL. For the same compound, the “Peptide MIC during treatment with antibiotic” value (MDREC 1229; [12]) was 1 µg/mL, the “Peptide MIC during treatment with antibiotic” value (MDREC 1229; vancomycin […] (Conc./MIC 1/4)) was 4 µg/mL and the “Peptide MIC during treatment with antibiotic” value (MDREC 1229; vancomycin […] (Conc./MIC 1/8)) was 8 µg/mL. The “Peptide MIC” value (E. coli; [18]) was 0 µg/mL, the “Peptide MIC” value (E. coli; [19]) was 0 µg/mL and the “Peptide MIC” value (E. coli; [20]) was 0 µg/mL. For the same compound, the “Minimal inhibitory concentration MIC” value (S. typhimurium) was 64 µg/mL (≈ 27.4 µM), the “Minimal inhibitory concentration MIC” value (MDRST 8009) was 64 µg/mL (≈ 27.4 µM) and the “Minimal inhibitory concentration MIC” value (MDRAB 12036) was 32 µg/mL (≈ 13.7 µM). For the same compound, the “Minimal inhibitory concentration MIC” value (MDRAB 12035 [3]) was 32 µg/mL (≈ 13.7 µM), the “Peptide MIC, peptide alone” value (MDRAB 12035 [3]) was 32 µg/mL and the “Minimal inhibitory concentration MIC” value (A. baumannii [4]) was 32 µg/mL (≈ 13.7 µM). For the same compound, the “Peptide MIC, peptide alone” value (A. baumannii [4]) was 32 µg/mL.
